# Assay results: patent US6642226B2, “Substituted phenyl-piperidine methanone compounds” (Hoffman-La Roche Inc., priority 2001, dated 2003)
# Target: T1, human NK1 receptor (Homo sapiens, UniProt P25103)
# T1 construct: expressed in transfected cells; host or cells: CHO cells, Semliki virus expression system; membrane suspension
# Test: NK1 receptor binding, [3H]substance P displacement
# Settings: for Ki: human NK1 receptors in CHO cells, [3H]substance P 0.6 nM, read-out: pKi (affinity to the NK-1 receptor) (converted); for relative activity of enantiomer in the test for NK-1 binding: enantiomer fraction from Chiralpak AD separation of the racemate
# Protocol: The affinity of test compounds for the NK1 receptor was evaluated at human NK1 receptors in CHO cells infected with the human NK1 receptor (using the Semliki virus expression system) and radiolabelled with [^3H]substance P (final concentration 0.6 nM). Binding assays were performed in HEPES buffer (50 mM, pH 7.4) containing BSA (0.04%) leupeptin (8 μg/ml), MnCl2 (3 mM) and phosphoramidon (2 μM). Binding assays consisted of 250 μl of membrane suspension (1.25×10^5 cells/assay tube), […] of buffer of displacing agent and 125 μl of [^3H]substance P. Displacement curves were determined with at least seven concentrations of the compound. The assay tubes were incubated for 60 min at room temperature after which time the tube contents were rapidly filtered under vacuum through GF/C filters presoaked for 60 min with PEI (0.3%) with 2×2 ml washes of HEPES buffer (50 mM, pH 7.4). The radioactivity retained on the filters was measured by scintillation counting. All assays were performed in triplicate in at least 2 separate experiments.
# T1 sequence (P25103 whole entry): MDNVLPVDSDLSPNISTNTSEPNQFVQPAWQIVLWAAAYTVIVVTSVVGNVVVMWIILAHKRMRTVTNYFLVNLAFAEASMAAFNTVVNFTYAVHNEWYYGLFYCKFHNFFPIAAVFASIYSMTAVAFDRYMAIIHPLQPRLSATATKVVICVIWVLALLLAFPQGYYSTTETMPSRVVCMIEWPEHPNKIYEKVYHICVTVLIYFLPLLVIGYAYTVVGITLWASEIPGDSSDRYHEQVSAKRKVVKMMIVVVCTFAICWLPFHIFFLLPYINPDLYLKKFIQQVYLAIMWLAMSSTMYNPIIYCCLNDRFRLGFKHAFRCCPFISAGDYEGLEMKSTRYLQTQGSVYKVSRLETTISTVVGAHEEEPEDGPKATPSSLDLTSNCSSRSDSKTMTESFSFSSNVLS
Structure (SMILES),Ki [nM],relative activity of enantiomer in the test for NK-1 binding
"NC1CCN(C2CCN(C(=O)c3cc(C(F)(F)F)cc(C(F)(F)F)c3)CC2c2ccc(F)cc2)C1 (mixture of isomers) [Example 118, (3RS,3′RS,4SR)- and (3RS,3′SR,4SR)-[4-(3-Amino-pyrrolidin-1-yl)-3-(4-fluoro-phenyl)-piperidin-1-yl]-(3,5-bis-trifluoromethyl-phenyl)-methanone]",1.78,
"O=C(c1cc(C(F)(F)F)cc(C(F)(F)F)c1)N1CC[C@@H](N2CCN(C(=O)C(F)(F)F)CC2)[C@@H](c2ccc(Cl)cc2)C1 (single isomer, unassigned) [Example 108, (−)-1-{4-[1-(3,5-Bis-trifluoromethyl-benzoyl)-3-(4-chloro-phenyl)-piperidin-4-yl]-piperazin-1-yl}-2,2,2-trifluoro-ethanone]",1.29,more active enantiomer
"CN1CCN([C@@H]2CCN(C(=O)c3cc(C(F)(F)F)cc(C(F)(F)F)c3)C[C@@H]2c2ccccc2)CC1 (single isomer, unassigned) [Example 92, (−)-(3,5-Bis-trifluoromethyl-phenyl)-[3-phenyl-4-(4-methyl-piperazin-1-yl)-piperidin-1-yl]-methanone]",2.69,more active enantiomer
"O=C(Cc1ccccc1)NC1CCCN(C2CCN(C(=O)c3cc(C(F)(F)F)cc(C(F)(F)F)c3)CC2c2ccc(F)cc2)C1 (mixture of isomers) [Example 79, (3RS,3′RS,4SR)- and (3RS,3′SR,4SR)-N-[1′-(3,5-Bis-trifluoromethyl-benzoyl)-3′-(4-fluoro-phenyl)-[1,4′]bipiperidinyl-3-yl]-2-phenyl-acetamide]",2.04,
"O=C(c1cc(C(F)(F)F)cc(C(F)(F)F)c1)N1CC[C@@H](N2CCCC2)[C@@H](c2ccc(Cl)cc2)C1 (single isomer, unassigned) [Example 80, (−)-(3,5-Bis-trifluoromethyl-phenyl)-[3-(4-chloro-phenyl)-4-pyrrolidin-1-yl-piperidin-1-yl]-methanone]",3.16,more active enantiomer
"O=C(c1cc(C(F)(F)F)cc(C(F)(F)F)c1)N1CCC(N2CCN(CCO)CC2)C(c2ccccc2)C1 (single isomer, unassigned; (-)) [Example 115, (−)-(3,5-Bis-trifluoromethyl-phenyl)-{4-[4-(2-hydroxy-ethyl)-piperazin-1-yl]-3-phenyl-piperidin-1-yl}-methanone]",0.912,
"CN1CCN(C2CCN(C(=O)c3cc(Cl)cc(Cl)c3)CC2c2ccccc2)CC1 (single isomer, unassigned; (+)) [Example 127, (+)-(3,5-Dichloro-phenyl)-[4-(4-methyl-piperazin-1-yl)-3-phenyl-piperidin-1-yl]-methanone]",,more active enantiomer

# Continued, values first:
Ki [nM],relative activity of enantiomer in the test for NK-1 binding,Structure (SMILES)
2.95,,"O=C(NC1CCCN(C2CCN(C(=O)c3cc(C(F)(F)F)cc(C(F)(F)F)c3)CC2c2ccc(F)cc2)C1)C1CC1 (mixture of isomers) [Example 77, (3RS,3′RS,4SR)- and (3RS,3′SR,4SR)-Cyclopropanecarboxylic acid [1′-(3,5-bis-trifluoromethyl-benzoyl)-3′-(4-fluoro-phenyl)-[1,4′]bipiperidinyl-3-yl]-amide]"
0.631,,"CN(C)C1CCN(C2CCN(C(=O)c3cc(C(F)(F)F)cc(C(F)(F)F)c3)CC2c2ccc(Cl)cc2)CC1 (racemic) [Example 107, Rac-cis-(3,5-bis-trifluoromethyl-phenyl)-[3′-(4-chloro-phenyl)-4-dimethylamino-[1,4′]bipiperidinyl-1′-yl]-methanone]"
,more active enantiomer,"O=C(c1cc(C(F)(F)F)cc(C(F)(F)F)c1)N1CCC(N2CCN(C(=O)C3CC3)CC2)C(c2ccc(F)cc2)C1 (single isomer, unassigned; (+)) [Example 85, (+)-(3,5-Bis-trifluoromethyl-phenyl)-[4-(4-cyclopropanecarbonyl-piperazin-1-yl)-3-(4-fluoro-phenyl)-piperidin-1-yl]-methanone]"
